According to US11732560B1, “Nitrate treatment for injectivity improvement” (SAUDI ARABIAN OIL COMPANY, priority 2022, dated 2023):
Like-named read-outs stand apart in the source and are kept apart here.

Legend:
[1] = test system: Nitrate Utilizing Bacterial (NUB); assay: Field trial microbiological monitoring: planktonic NUB population; format: cell-based, nitrate utilizing bacteria
Method: (§1) A field experiment was conducted in an oil field water injection system to determine the effect of nitrate (NO3^-) for controlling sulfate reducing bacteria (SRB) in oilfield operations, and microbial influence corrosion (MIC) for surface pipelines.

sulfide production = test system: sulfide production
Method: as §1

NRSOB = test system: NRSOB
Method: as §1

[2] = test system: sulfate reducing bacteria (SRB)
Method: The second injection rate, 23 mg/l, was maintained for three weeks.

O=[N+]([O-])O [nitrate]
NUB population ([1]; initially detected, start of nitrate treatment): 104 NUB/ml | planktonic NUB population ([1]; nitrate reduced to 23 mg/L and 11 mg/L, over 7 days and after 56 days): 106 mL⁻¹ | NUB population ([1]; over nitrate treatment with 45 mg/L): ~10^6 NUB/ml | sulfide level (sulfide production; nitrate 11 mg/L): 6.7 mg/L | sulfide level (sulfide production; nitrate 23 mg/l): 8 mg/L | sulfide concentration (sulfide production; nitrate ion 45 mg/L, 15.8-17.3 ppm detected beforehand): 8.3 ppm | NRSOB numbers (NRSOB; nitrate dose reduced, decreased from 10^6): 10^4 per ml | NRSOB numbers (NRSOB; over treatment with nitrate at 45 mg/L, increased from 10^3): 10^6 /ml | SRB activities ([2]; increase observed later after 23 mg/l period, maintained): 101 SRB/ml | minimum SRB achieved ([2]; nitrate 11 mg/l): 10^1 bacteria/ml | SRB activities ([2]; nitrate 23 mg/l, at the end of three weeks): below the detection limits | drop in SRB activities ([2]; nitrate 45 mg/l, 10^2 SRB/ml before injection): 50%
